Assay results reported in US10420803B2, “Differentiation of pluripotent stem cells to intestinal midgut endoderm cells” (Janssen Biotech, Inc., priority 2016, dated 2019).

Assays:
Format in all cases: cell-based, human
[1] = system: H1-hESC-derived S3D5 cells; assay: Gene expression by qPCR (Taqman Arrays) in S3D5 cells
Procedure: (§1) Differentiation: The cultures were differentiated using the following protocol. During Stages 1 through 3 of the protocol, cultures were maintained on planar adherent cultures. […] The following nomenclature, S#D#, specifies exact time during Stages 1 through 3. For example, S1D3 is stage 1 day 3. Briefly, each stage defines differentiation towards definitive endoderm (stage 1), primitive gut tube (stage 2), and intestinal midgut endoderm (stage 3). • a. Stage 1 (3 days): Cells were cultured for one day in the following Stage 1 media:
For quantification of gene expression at various stages, Caco-2, H1-hESC, S1D3, S2D2, S3D2 and S3D5 cells were harvested, as described in Nature Biotechnology, 2014 (32) 11, 1121-1133. Briefly, gene expression was assessed in cells using custom Taqman® Arrays (Applied Biosystems, Foster City, Calif.); Open Array® (OA) was used for CDX2, FOXA2, SOX2, SOX9, PDX1, ALB, PTF1A, and Taqman® Low Density Array (TLDA) was used for KLF5, HOXC5, and LGR5, with housekeeping gene GAPDH used for both tests. Data were analyzed using Sequence Detection Software (Applied Biosystems, Foster City, Calif.), and normalized using GAPDH as a housekeeping gene to undifferentiated H1-hESC using the ΔΔCt method. Primer details are outlined in Table IV.

[2] = system: H1-hESC-derived S3D5 cells; assay: Cell number characterization using the Nucleocounter NC-100
Procedure: A summary of a differentiation method, including the important medium components, growth factors and small molecules that were added to each stage, and key stage-specific markers of the differentiating intestinal midgut endoderm cells (FOXA2; CDX2; KLF5; SOX9; PDX1^LO) is depicted in FIG. 1A. As compared to the neutral pH noted for S2D2 (7.35±0.04), cells were exposed to slightly acidic conditions in the BLAR medium, during the entirety of stage 3 (pH; S3D1, 6.98±0.05; S3D2, 7.02±0.04; S3D5, 7.18±0.03) (FIG. 1B), and as a result of lower sodium bicarbonate levels in BLAR medium. The pH of the culture can range from about 6.8 to 7.2 during the five days of stage 3. FIG. 1C depicts representative phase-contrast images of a S3D5 monolayer (left), and human epithelial colon adenocarcinoma cell line (“Caco-2”) (right), which was used as a benchmark for characterization of differentiation. A uniform morphology at S3D5 was observed.

[3] = system: H1-hESC-derived S3D5 cells; assay: FACS quantification of protein co-presence in S3D5 cells
Procedure: as §1
Quantification of differentiated cells: For quantification of protein presence co-localization, S3D5 cells were harvested and analyzed by FACS. FACS staining was conducted as described in Nature Biotechnology, 2014 (32) 11, 1121-1133, incorporated herein by reference in its entirety, and using the antibodies listed in Table II. In brief, differentiated cells were incubated in TrypLE™ Express (Life Technologies, Carlsbad, Calif., Catalog No. 12604) for 5-10 minutes at 37° C., released into a single-cell suspension, after which they were washed twice with a staining buffer of PBS containing 0.2% BSA (BD Biosciences, San Jose, Calif., Catalog No. 554657). Intracellular antibody staining was accomplished by utilizing the LIVE/DEAD Violet Fluorescent reactive dye (Life Technologies, Carlsbad, Calif., Catalog No. L34955) at 4° C. for 30 minutes followed by a single wash in cold PBS. Fixing of cells was in 300 μl of Cytofix/Cytoperm Buffer (BD Biosciences, San Jose, Calif., Catalog No. 554723) followed by two washes in Perm/Wash Buffer (BD Biosciences, San Jose, Calif., Catalog No. 554722). Cells were then incubated with the appropriate antibodies at 4° C. for 30 minutes (for unconjugated antibodies) or 1 hour (for conjugated antibodies), and then washed twice prior to analysis on the BD FACS Canto II using BD FACS Diva Software with at least 30,000 events being acquired. Non-viable cells were excluded during FACS analysis, and gating was determined by using isotype antibodies (“IgG”). IgG FACS data is shown as the top panel for each FACS experiment presented. Antibodies were tested for specificity using positive controls, such as Caco-2 cells, or negative controls, such as S1D3 definitive endoderm (“DE”) cells.

[4] = S3D5, compared to pancreas-biased S4D3 cells

BMP4: Bone morphogenic protein-4, 50 ng/ml with 1 μM retinoic acid in BLAR medium during Stage 3
ALB gene expression ([1]; S3D5): not observed | HOXA13 gene expression ([1]; S3D5): not induced | HOXC5 gene expression ([1]; S3D5): strongly induced | KLF5 gene expression ([1]; S3D5): upregulated | LGR5 gene expression ([1]; S3D5): not induced | SOX2 gene expression ([1]; S3D5): below levels seen in hESC and Caco-2 cells | SOX9 gene expression ([1]; S3D5, compared to Caco-2 cells): Strong induction | PDX1 gene expression [1, 4]: induced at low levels | PTF1A gene expression [1, 4]: not induced | CDX2 gene expression ([1]; during Stage 3): induced | FOXA2 gene expression ([1]; during Stage 3): maintained | S3D5 cells obtained from one hESC [2]: 4.56±2.60 | S3D5 cells exhibiting SOX2 and CDX2 co-presence [3]: 1.45±0.15% | percent of cells co-positive for both CDX2 and PDX1 [3]: 69.4±14.2% | percent of cells co-present for both CDX2 and SOX9 [3]: 98.7±0.25% | percent of S3D5 cells co-present for both CDX2 and FOXA2 protein ([3]; Stage 3 in BLAR medium with 1 μM retinoic acid and 50 ng/ml BMP): 90.0±5.85% | percentage KI67-protein positive cells of total S3D5 cells ([3]; total cells >90% CDX2-positive): 16.8±3.12%
